Reference: PubChem BioAssay AID248 (DTP/NCI, 2004)
“And” between values parts separate entries of the source, which are not always exact repeats. Equal entries are not always repeated. Toxic doses and inconclusive results are not listed. Rule as the data show it: active = T/C of 150% or more; inactive = T/C below 125%.

Test system: L1210 leukemia ip in BDF1 mice, survival T/C
Experiment: NCI In Vivo Anticancer Drug Screen. Data for tumor model L1210 Leukemia (intraperitoneal) in B6D2F1 (BDF1) mice
Conditions: endpoint: mean survival time, higher = longer survival
Outline: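 Survival endpoint. Drug-treated group vs vehicle group, expressed as T divided by C. Tumor passaged by transplantation.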

[1] = dose: 100.0 mg/kg/injection, schedule: Q01DX001 (ip), vehicle: saline
[2] = dose: 200.0 mg/kg/injection, schedule: Q01DX001 (ip), vehicle: saline
[3] = dose: 400.0 mg/kg/injection, schedule: Q01DX001 (ip), vehicle: saline
[4] = dose: 100.0 mg/kg/injection, schedule: Q04DX003 (ip), vehicle: Klucel (hydroxypropylcellulose) (HPC)
[5] = dose: 200.0 mg/kg/injection, schedule: Q04DX003 (ip), vehicle: Klucel (hydroxypropylcellulose) (HPC)
[6] = dose: 400.0 mg/kg/injection, schedule: Q04DX003 (ip), vehicle: Klucel (hydroxypropylcellulose) (HPC)
[7] = dose: 100.0 mg/kg/injection, schedule: Q01DX001 (ip), vehicle: Klucel (hydroxypropylcellulose) (HPC)
[8] = dose: 200.0 mg/kg/injection, schedule: Q01DX001 (ip), vehicle: Klucel (hydroxypropylcellulose) (HPC)
[9] = dose: 400.0 mg/kg/injection, schedule: Q01DX001 (ip), vehicle: Klucel (hydroxypropylcellulose) (HPC)
[10] = dose: 100.0 mg/kg/injection, schedule: Q04DX002 (ip), vehicle: saline with Tween-80
[11] = dose: 200.0 mg/kg/injection, schedule: Q04DX002 (ip), vehicle: saline with Tween-80
[12] = dose: 400.0 mg/kg/injection, schedule: Q04DX002 (ip), vehicle: saline with Tween-80
[13] = dose: 100.0 mg/kg/injection, schedule: Q01DX009 (ip), vehicle: Klucel (hydroxypropylcellulose) (HPC)
[14] = dose: 200.0 mg/kg/injection, schedule: Q01DX009 (ip), vehicle: Klucel (hydroxypropylcellulose) (HPC)
[15] = dose: 100.0 mg/kg/injection, schedule: Q01DX009 (ip), vehicle: saline with Tween-80
[16] = dose: 200.0 mg/kg/injection, schedule: Q01DX009 (ip), vehicle: saline with Tween-80
[17] = dose: 200.0 mg/kg/injection, schedule: Q01DX009 (ip), vehicle: saline
[18] = dose: 100.0 mg/kg/injection, schedule: Q01DX001 (ip), vehicle: saline with Tween-80
[19] = dose: 200.0 mg/kg/injection, schedule: Q01DX001 (ip), vehicle: saline with Tween-80
[20] = dose: 400.0 mg/kg/injection, schedule: Q01DX001 (ip), vehicle: saline with Tween-80
[21] = dose: 400.0 mg/kg/injection, schedule: Q01DX009 (ip), vehicle: saline with Tween-80

Measured: T/C

COc1ccccc1/C=N/N=C(N)N
inactive: dose: 15.5 mg/kg/injection, schedule: Q01DX Z (ip), vehicle: other 97 % of control | dose: 31.0 mg/kg/injection, schedule: Q01DX Z (ip), vehicle: other 96 % of control

ClC(Cl)(NC1CCCCC1)NC1CCCCC1
inactive: [1] 90 % of control | [2] 91 % of control | [3] 86 % of control

COC(=O)c1cc(NC(=O)CC(=O)c2cccc(N)c2)cc(C(=O)OC)c1
inactive: [4] 104 % of control | [5] 96 % of control | [6] 94 % of control

CC1C2C(=O)C3(C(C)C(=O)O)CCC2(C)C3CC12OCCO2 (stereo not given)
inactive: [7] 95 % of control | [8] 108 % of control | [9] 97 % of control

Cc1cc(=O)[nH]c2c1C(=O)c1c(C)cc(=O)n(C)c1C2=O
inactive: dose: 0.75 mg/kg/injection, schedule: Q01DX009 (ip), vehicle: Klucel (hydroxypropylcellulose) (HPC) 95 % of control | dose: 1.0 mg/kg/injection, schedule: Q04DX003 (ip), vehicle: Klucel (hydroxypropylcellulose) (HPC) 93 % of control | dose: 1.5 mg/kg/injection, schedule: Q01DX009 (ip), vehicle: Klucel (hydroxypropylcellulose) (HPC) 100 % of control | dose: 3.0 mg/kg/injection, schedule: Q01DX009 (ip), vehicle: Klucel (hydroxypropylcellulose) (HPC) 95 % of control and 96 % of control | dose: 3.0 mg/kg/injection, schedule: Q04DX003 (ip), vehicle: Klucel (hydroxypropylcellulose) (HPC) 105 % of control | dose: 6.0 mg/kg/injection, schedule: Q04DX003 (ip), vehicle: Klucel (hydroxypropylcellulose) (HPC) 92 % of control

CC(=O)N1CCC(CC2CCCCC2)CC1
inactive: dose: 12.5 mg/kg/injection, schedule: Q04DX003 (ip), vehicle: saline 97 % of control | dose: 25.0 mg/kg/injection, schedule: Q04DX003 (ip), vehicle: saline 100 % of control | dose: 50.0 mg/kg/injection, schedule: Q04DX003 (ip), vehicle: saline 100 % of control

CN(C)c1ccc(N=[N+]=[N-])cc1
inactive: [10] 98 % of control | [11] 95 % of control | [12] 98 % of control

CCc1c(Cl)nc(N)nc1Cl
inactive: dose: 100.0 mg/kg/injection, schedule: Q01DX Z (ip), vehicle: methylcellulose (MC) 95 % of control | dose: 200.0 mg/kg/injection, schedule: Q01DX Z (ip), vehicle: methylcellulose (MC) 89 % of control

COc1ccc(I)c([N+](=O)[O-])c1
inactive: [13] 96 % of control | [4] 100 % of control | [14] 96 % of control | [5] 94 % of control | [6] 103 % of control

CC12CCC(CC1Cl)C2 (stereo not given)
inactive: dose: 50.0 mg/kg/injection, schedule: Q01DX001 (ip), vehicle: carboxymethylcellulose (CMC) 93 % of control | dose: 100.0 mg/kg/injection, schedule: Q01DX001 (ip), vehicle: carboxymethylcellulose (CMC) 91 % of control | dose: 200.0 mg/kg/injection, schedule: Q01DX001 (ip), vehicle: carboxymethylcellulose (CMC) 91 % of control | dose: 400.0 mg/kg/injection, schedule: Q01DX001 (ip), vehicle: carboxymethylcellulose (CMC) 96 % of control

c1ccc([Si]([O][Sn]([c]2ccccc2)([c]2ccccc2)[c]2ccccc2)(c2ccccc2)c2ccccc2)cc1
inactive: dose: 25.6 mg/kg/injection, schedule: Q04DX002 (ip), vehicle: saline with Tween-80 89 % of control | dose: 64.0 mg/kg/injection, schedule: Q04DX002 (ip), vehicle: saline with Tween-80 93 % of control | dose: 160.0 mg/kg/injection, schedule: Q04DX002 (ip), vehicle: saline with Tween-80 93 % of control | [12] 89 % of control

CC(C)(C=O)CO
inactive: [10] 94 % of control | [11] 97 % of control | [12] 91 % of control

Cc1ccc(CNC(=O)C2CCCCC2C(=O)O)cc1 (stereo not given)
inactive: [13] 100 % of control | [14] 96 % of control | dose: 400.0 mg/kg/injection, schedule: Q01DX009 (ip), vehicle: Klucel (hydroxypropylcellulose) (HPC) 93 % of control

OCCOC(c1ccccc1)(c1ccccc1)c1ccccc1
inactive: dose: 50.0 mg/kg/injection, schedule: Q01DX009 (ip), vehicle: saline with Tween-80 98 % of control | [15] 100 % of control | [16] 91 % of control

COc1cc(/C=N/Nc2cc(=O)[nH]c(N)n2)cc(OC)c1OC
inactive: [4] 98 % of control | [5] 100 % of control | [6] 100 % of control

COc1ccc(N2C(=O)OC3(CCN(Cc4ccccc4)CC3)C2=O)cc1
inactive: [7] 96 % of control | [8] 103 % of control | [9] 92 % of control

C[Si](C)(C)Oc1ccc(O[Si](C)(C)C)cc1
inactive: dose: 100.0 mg/kg/injection, schedule: Q01DX009 (ip), vehicle: other 92 % of control | dose: 200.0 mg/kg/injection, schedule: Q01DX009 (ip), vehicle: other 94 % of control | dose: 400.0 mg/kg/injection, schedule: Q01DX009 (ip), vehicle: other 101 % of control

O=CNc1ccc(Br)cc1
inactive: dose: 50.0 mg/kg/injection, schedule: Q04DX003 (ip), vehicle: Klucel (hydroxypropylcellulose) (HPC) 97 % of control | [13] 98 % of control | [4] 97 % of control | [14] 98 % of control | [5] 100 % of control

CCC(=O)c1ccc(NC(=O)Nc2ccc(C(=O)CC)cc2)cc1
inactive: dose: 20.0 mg/kg/injection, schedule: Q01DX009 (ip), vehicle: saline 96 % of control | dose: 40.0 mg/kg/injection, schedule: Q01DX009 (ip), vehicle: saline 93 % of control | dose: 80.0 mg/kg/injection, schedule: Q01DX009 (ip), vehicle: saline 102 % of control | dose: 160.0 mg/kg/injection, schedule: Q01DX009 (ip), vehicle: saline 95 % of control | dose: 320.0 mg/kg/injection, schedule: Q01DX009 (ip), vehicle: saline 92 % of control

Cc1ccc(S(C)(=N)=O)cc1 (stereo not given)
inactive: dose: 100.0 mg/kg/injection, schedule: Q01DX009 (ip), vehicle: saline 102 % of control | dose: 100.0 mg/kg/injection, schedule: Q04DX003 (ip), vehicle: saline 95 % of control | [17] 100 % of control | dose: 200.0 mg/kg/injection, schedule: Q04DX003 (ip), vehicle: saline 98 % of control | dose: 400.0 mg/kg/injection, schedule: Q01DX009 (ip), vehicle: saline 105 % of control | dose: 400.0 mg/kg/injection, schedule: Q04DX003 (ip), vehicle: saline 98 % of control

CSc1ccc(OC(=O)Nc2ccc(Cl)cc2)cc1
inactive: [18] 95 % of control | [15] 104 % of control and 106 % of control | dose: 100.0 mg/kg/injection, schedule: Q04DX002 (ip), vehicle: Klucel (hydroxypropylcellulose) (HPC) 103 % of control | [10] 98 % of control | dose: 100.0 mg/kg/injection, schedule: Q04DX003 (ip), vehicle: saline with Tween-80 93 % of control | [19] 106 % of control | [16] 102 % of control and 104 % of control | dose: 200.0 mg/kg/injection, schedule: Q04DX002 (ip), vehicle: Klucel (hydroxypropylcellulose) (HPC) 103 % of control | [11] 90 % of control | dose: 200.0 mg/kg/injection, schedule: Q04DX003 (ip), vehicle: saline with Tween-80 95 % of control | [20] 90 % of control | [21] 100 % of control and 117 % of control | dose: 400.0 mg/kg/injection, schedule: Q04DX002 (ip), vehicle: Klucel (hydroxypropylcellulose) (HPC) 92 % of control | [12] 98 % of control | dose: 400.0 mg/kg/injection, schedule: Q04DX003 (ip), vehicle: saline with Tween-80 98 % of control

CN(C)c1ccc(C=Nc2ccccc2O)cc1
inactive: [1] 107 % of control | [2] 96 % of control | [3] 97 % of control

CC1=CC(C)(C)Nc2ccc(Cc3ccc4c(c3)C(C)=CC(C)(C)N4)cc21
inactive: [15] 86 % of control | [16] 100 % of control | [21] 92 % of control

C[Si](F)(c1cccc2ccccc12)c1cccc2ccccc12
inactive: [18] 97 % of control | [19] 103 % of control | [20] 102 % of control

CCCCCNC(C)=O
inactive: [17] 108 % of control

CC(=O)OCC1OC(NC(=O)NCCCl)C(OC(C)=O)C(OC(C)=O)C1OC(C)=O (stereo not given)
inactive: [7] 101 % of control | [8] 104 % of control | [9] 104 % of control
